# Data taken from US20230365673A1, “MEANS FOR REDUCING RADIO- AND CHEMOTHERAPY RESISTANCE AND ADVERSE EFFECTS” (JOHANN WOLFGANG GOETHE-UNIVERSITÄT FRANKFURT AM MAIN, priority 2020, published 2023).
# Test system: human fibroblasts
# Experiment: Nitrite concentration by Griess assay in human fibroblast supernatants
# Format: cell-based
# Conditions: IL-1α 1 μg/mL only, 72 h
# Text: (A and B) Quantification of IL-1 and IL-1RA baseline serum levels in non-pCR (n=25) and pCR (n=7) patients before CRT. Data are mean±SD. ** p<0.01 by t-test. (C) IL-1RA serum level association with two SNPs: rs4251961 (T/C) and rs579543 (A/G) using DNA isolated from patients (n=31) pre-CRT peripheral blood mononuclear cells. Data are mean±SD. ** p=0.0052 by t-test. (D) Kaplan-Meier DFS curve of patients with high (n=37) and low (n=37) IL-1RN expression score (median split) based on the RNA sequencing data of pre-CRT biopsies. * p<0.05 by Log-rank (Mantel-Cox) test. […] (H) Paired analysis of sirius red staining of non-pCR patients (n=11) pre versus post-CRT. Scale bars=300 μm. (I) Paired quantification of p21 immunohistochemistry staining of non-pCR patients (n=10) pre versus post CRT. (J) Correlation analysis of pre-CRT serum IL-1RA levels with ratio of p21 induction (post/pre-CRT p21 RNA expression level) (n=10 non pCR patients). * p<0.05 by Spearman r correlation test. […] (M) Nitrite concentration determined by Griess assay in supernatants from WT, IL-1RA high & IL-1RA low conditioned media treated human fibroblasts for 72 h (n=13 independent wells per group). […] (N) Nitrite concentration determined by Griess assay in supernatants from untreated and IL-1α (1 μg/mL) stimulated human fibroblasts for 72 h (n=32 independent wells per group representing 3 independent experiments). […]
substance,measurement,value
recombinant IL-1α: recombinant cytokine used to stimulate fibroblasts,nitrite production by fibroblasts,higher nitrite production by fibroblasts
